Test results reported in patent publication US9630949B2, “Oxoazetidine derivatives, process for the preparation thereof and use thereof in human medicine and in cosmetics” (GALDERMA RESEARCH & DEVELOPMENT, priority 2008, dated 2017).
pEC50: −log10 of the molar value.

How the values were obtained:
hMC1R = hMC1R (Homo sapiens (Human), UniProt Q01726); experiment: Transactivation test: melanocortin receptors (pCRE-Luc luciferase reporter), hMC1R; type: cell-based; conditions: HEK293 transfected with pCRE-Luc and hMC1R; products tested alone (agonist), 6 h incubation; % activity vs NDP-MSH 10 nM; IA: inactive
hMC1R, sequence (Q01726 whole entry): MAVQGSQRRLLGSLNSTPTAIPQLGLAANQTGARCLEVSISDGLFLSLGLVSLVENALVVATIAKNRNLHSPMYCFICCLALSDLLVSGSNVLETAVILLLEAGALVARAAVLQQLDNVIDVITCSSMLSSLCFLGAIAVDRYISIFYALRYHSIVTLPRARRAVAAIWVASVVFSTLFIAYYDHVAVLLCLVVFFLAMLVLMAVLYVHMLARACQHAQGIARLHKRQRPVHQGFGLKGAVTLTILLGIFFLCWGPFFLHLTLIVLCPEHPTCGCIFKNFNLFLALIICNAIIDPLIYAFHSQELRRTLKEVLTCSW
Description: (§1) Transactivation Test: Melanocortin Receptors
(§2) HEK293 lines are transfected with the pCRE-Luc and hMC1R, hMC3R, hMC4R or hMC5R vectors. The cells are cultured at 37° C., 5% CO2, in DMEM medium supplemented with 10% of foetal calf serum.
(§3) In the presence of an activator (agonist), the melanocortin receptor will activate the cAMP pathway which, via the CRE-Luc vector, will result in the synthesis of luciferase. After the addition of a lysis buffer containing a luminescent substrate for luciferase, it will be possible to measure the luminescence proportional to the degree of activation or of inhibition of the receptor.
(§4) The products are solubilized at 10 mM in DMSO. They are tested in the form of dose-response at a final DMSO concentration of 0.1%. The range comprising 10 points and one zero begins at 10 μM with 4-fold dilutions. For testing agonists, the products are tested alone. For determining the behaviour of antagonists, the products of interest are tested in the presence of 1 nM NDP-MSH (reference agonist). The cells are seeded at a rate of 5000 cells per well (384 well plate) in serum-free DMEM medium, and incubated overnight at 37° C., 5% CO2.
(§5) The products and the reference ligand (NDP-MSH) are added the following day, and the plates are again incubated for 6 h at 37° C., 5% CO2. After the addition of lysis buffer containing luciferin, the plates are read on a Top-Count instrument. The results are standardized as % activity using the 100% (cells+NDP-MSH at 10 nM) and 0% (cells alone) controls. An EC50 is calculated for each product using the XLFit software. The results are given in nM.

hMC4R = hMC4R (Homo sapiens (Human), UniProt P32245); experiment: Transactivation test: melanocortin receptors (pCRE-Luc luciferase reporter), hMC4R; type: cell-based; conditions: HEK293 transfected with pCRE-Luc and hMC4R; products tested alone (agonist), 6 h incubation; % activity vs NDP-MSH 10 nM; IA: inactive
hMC4R, sequence (P32245 whole entry): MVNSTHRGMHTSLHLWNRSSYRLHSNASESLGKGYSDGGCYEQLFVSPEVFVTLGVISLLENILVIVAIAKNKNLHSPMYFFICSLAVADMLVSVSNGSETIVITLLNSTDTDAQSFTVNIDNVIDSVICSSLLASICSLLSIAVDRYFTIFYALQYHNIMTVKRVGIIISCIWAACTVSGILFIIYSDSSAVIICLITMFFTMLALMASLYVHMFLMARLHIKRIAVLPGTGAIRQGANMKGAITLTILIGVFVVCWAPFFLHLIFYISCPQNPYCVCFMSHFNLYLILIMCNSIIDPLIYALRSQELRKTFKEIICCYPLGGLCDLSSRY
Description: as §1, §2, §3, §4, §5

Question: With `CCCCCC1(c2cc(F)ccc2F)CN(C(=O)[C@@H](Cc2ccc(OC)cc2)NC(=O)CCc2c[nH]cn2)C1` [Compound 60, N-[(R)-2-[3-(2,5-difluorophenyl)-3-pentylazetidin-1-yl]-1-(4-methoxybenzyl)-2-oxoethyl]-3-(1H-imidazol-4-yl)propionamide] as the compound, how does the pEC50 (hMC1R) read?
Answer: The pEC50 was 6.92.

Question: What about the pEC50 (hMC4R) of the same compound?
Answer: The pEC50 was 7.00.

Question: `CCCCCC1(c2ccccc2)CN(C(=O)[C@@H](Cc2cccc(F)c2)NC(=O)CCc2c[nH]cn2)C1` [Compound 56, N-[(R)-1-(3-fluorobenzyl)-2-oxo-2-(3-pentyl-3-phenylazetidin-1-yl)ethyl]-3-(1H-imidazol-4-yl)propionamide] was tested. Which pEC50 (hMC1R) did it give?
Answer: The pEC50 was 5.40.

Question: And the pEC50 (hMC4R)?
Answer: Its pEC50 is 5.10.

Question: `CCCCOC1(c2ccc(F)cc2)CN(C(=O)[C@@H](Cc2ccccc2)NC(=O)CCC2=NCC=N2)C1` [Compound 34, N-{(R)-1-benzyl-2-[3-butoxy-3-(4-fluoro-phenyl)azetidin-1-yl]-2-oxoethyl}-3-(4H-imidazol-2-yl)propionamide] was tested. Which pEC50 (hMC1R) did it give?
Answer: Its pEC50 is 6.00.

Question: What about the pEC50 (hMC4R) of the same compound?
Answer: The pEC50 was 5.70.

Question: `CCCCOC1(c2ccccc2C)CN(C(=O)[C@@H](Cc2ccc(OC)cc2)NC(=O)CCc2cncn2C)C1` [Compound 67, N-[(R)-2-(3-butoxy-3-o-tolylazetidin-1-yl)-1-(4-methoxybenzyl)-2-oxoethyl]-3-(3-methyl-3H-imidazol-4-yl)propionamide] was tested. Which pEC50 (hMC1R) did it give?
Answer: The pEC50 was 6.30.

Question: And the pEC50 (hMC4R)?
Answer: Its pEC50 is 6.30.

Question: With `COc1ccc(C[C@H](NC(=O)CCc2c[nH]cn2)C(=O)N2CC(OCC3CC3)(c3ccccc3C)C2)cc1` [Compound 14, N-[(S)-2-(3-cyclopropylmethoxy-3-o-tolylazetidin-1-yl)-1-(4-methoxybenzyl)-2-oxoethyl]-3-(1H-imidazol-4-yl)propionamide] as the compound, how does the pEC50 (hMC1R) read?
Answer: The pEC50 was 5.70.

Question: And the pEC50 (hMC4R)?
Answer: Its pEC50 is 4.82.

Question: Which results are given for `CCCCCC1(c2ccccc2)CN(C(=O)[C@@H](Cc2ccc(OC)cc2)NC(=O)CCc2cncn2C)C1` [Compound 64, N-[(R)-1-(4-methoxybenzyl)-2-oxo-2-(3-pentyl-3-phenylazetidin-1-yl)ethyl]-3-(3-methyl-3H-imidazol-4-yl)propionamide]?
Answer: pEC50 (hMC1R): 5.70; pEC50 (hMC4R): 6.30

Question: With `COc1ccc(C[C@@H](NC(=O)CCc2c[nH]cn2)C(=O)N2CC(OCCCC(F)(F)F)(c3ccccc3C)C2)cc1` [Compound 78] as the compound, how does the pEC50 (hMC1R) read?
Answer: Its pEC50 is 6.92.

Question: And the pEC50 (hMC4R)?
Answer: The pEC50 was 5.70.

Question: With `COc1ccc(C[C@@H](NC(=O)CCc2c[nH]cn2)C(=O)N2CC(OCC3CC3)(c3ccccc3)C2)cc1` [Compound 28, N-[(R)-2-(3-cyclopropylmethoxy-3-phenylazetidin-1-yl)-1-(4-methoxybenzyl)-2-oxoethyl]-3-(1H-imidazol-4-yl)propionamide] as the compound, how does the pEC50 (hMC1R) read?
Answer: Its pEC50 is 6.00.

Question: What about the pEC50 (hMC4R) of the same compound?
Answer: Its pEC50 is 5.10.

Question: How did the pEC50 (hMC1R) turn out when `CCCCCCOC1(c2ccccc2C)CN(C(=O)[C@@H](Cc2ccc(OC)cc2)NC(=O)CCc2c[nH]cn2)C1` [Compound 25, N-[(R)-2-(3-hexyloxy-3-o-tolylazetidin-1-yl)-1-(4-methoxybenzyl)-2-oxoethyl]-3-(1H-imidazol-4-yl)propionamide] was run?
Answer: Its pEC50 is 6.00.

Question: What about the pEC50 (hMC4R) of the same compound?
Answer: The pEC50 was 5.10.

Question: How did the pEC50 (hMC1R) turn out when `CCOC1(c2ccccc2C)CN(C(=O)[C@H](Cc2ccc(OC)cc2)NC(=O)CCc2c[nH]cn2)C1` [Compound 13, N-[(S)-2-(3-ethoxy-3-o-tolylazetidin-1-yl)-1-(4-methoxybenzyl)-2-oxoethyl]-3-(1H-imidazol-4-yl)propionamide] was run?
Answer: Its pEC50 is 5.70.

Question: What about the pEC50 (hMC4R) of the same compound?
Answer: Its pEC50 is 4.82.

Question: Which results are given for `CCCCOC1(c2ccccc2C)CN(C(=O)[C@@H](Cc2ccc(OC)cc2)NC(=O)[C@@H](O)Cc2c[nH]cn2)C1` [Compound 71, (S)-N-[(R)-2-(3-Butoxy-3-o-tolylazetidin-1-yl)-1-(4-methoxybenzyl)-2-oxoethyl]-2-hydroxy-3-(1H-imidazol-4-yl)propionamide]?
Answer: pEC50 (hMC1R): 7.22; pEC50 (hMC4R): 5.40

Question: `CCCCOC1(c2cccc(F)c2)CN(C(=O)[C@H](Cc2ccc(OC)cc2)NC(=O)[C@H](Cc2c[nH]cn2)NC(=O)c2ccccc2)C1` [Compound 9, N-[(S)-1-[(S)-2-[3-butoxy-3-(3-fluorophenyl)azetidin-1-yl]-1-(4-methoxybenzyl)-2-oxoethylcarbamoyl]-2-(1H-imidazol-4-yl)ethyl]benzamide] was tested. Which pEC50 (hMC1R) did it give?
Answer: The pEC50 was 6.92.

Question: And the pEC50 (hMC4R)?
Answer: The pEC50 was 6.00.

Question: `CCCCOC1(c2ccccc2)CN(C(=O)[C@@H](CC2CCCCC2)NC(=O)CCc2c[nH]cn2)C1` [Compound 18, N-[(R)-2-(3-butoxy-3-phenylazetidin-1-yl)-1-cyclohexylmethyl-2-oxoethyl]-3-(1H-imidazol-4-yl)propionamide] was tested. Which pEC50 (hMC1R) did it give?
Answer: The pEC50 was 5.10.

Question: What about the pEC50 (hMC4R) of the same compound?
Answer: Its pEC50 is 5.10.

Question: What does the source list for `COc1ccc(C[C@@H](NC(=O)CCc2c[nH]cn2)C(=O)N2CC(OCC3CCCCC3)(c3ccccc3C)C2)cc1` [Compound 77, N-[(R)-2-(3-Cyclohexylmethoxy-3-o-tolylazetidin-1-yl)-1-(4-methoxybenzyl)-2-oxoethyl]-3-(1H-imidazol-4-yl)propionamide]?
Answer: pEC50 (hMC1R): 6.92; pEC50 (hMC4R): 5.70

Question: With `CCCC(=O)OC1(c2ccc(F)cc2)CN(C(=O)[C@H](Cc2ccc(OC)cc2)NC(=O)[C@H](Cc2c[nH]cn2)NC(=O)c2ccccc2)C1` [Compound 6, 1-[(S)-2-[(S)-2-benzoylamino-3-(1H-imidazol-4-yl)propionylamino]-3-(4-methoxyphenyl)propionyl]-3-(4-fluorophenyl)azetidin-3-yl ester of butyric acid] as the compound, how does the pEC50 (hMC1R) read?
Answer: The pEC50 was 5.70.

Question: What about the pEC50 (hMC4R) of the same compound?
Answer: The pEC50 was 5.10.

Question: With `CCCCOC1(c2ccccc2C)CN(C(=O)C(NC(=O)CCc2c[nH]cn2)C(O)c2ccc(OC)cc2)C1` (centres unmarked) [Compound 73, N-[1-(3-Butoxy-3-o-tolylazetidine-1-carbonyl)-2-hydroxy-2-(4-methoxyphenyl)ethyl]-3-(1H-imidazol-4-yl)propionamide] as the compound, how does the pEC50 (hMC1R) read?
Answer: Its pEC50 is 6.30.

Question: What about the pEC50 (hMC4R) of the same compound?
Answer: The pEC50 was 5.10.

Question: With `COc1ccc(C[C@H](NC(=O)[C@H](Cc2c[nH]cn2)NC(=O)c2ccccc2)C(=O)N2CC(OC(C)=O)(c3ccccc3C)C2)cc1` [Compound 5, 1-[(S)-2-[(S)-2-benzoylamino-3-(1H-imidazol-4-yl)propionylamino]-3-(4-methoxyphenyl)propionyl]-3-o-tolylazetidin-3-yl acetate] as the compound, how does the pEC50 (hMC1R) read?
Answer: The pEC50 was 5.40.

Question: And the pEC50 (hMC4R)?
Answer: The pEC50 was 5.10.

Question: What does the source list for `CCCCCC1(c2ccccc2)CN(C(=O)[C@@H](Cc2ccc(F)c(F)c2)NC(=O)CCc2c[nH]cn2)C1` [Compound 53, N-[(R)-1-(3,4-difluorobenzyl)-2-oxo-2-(3-pentyl-3-phenylazetidin-1-yl)ethyl]-3-(1H-imidazol-4-yl)propionamide]?
Answer: pEC50 (hMC1R): 6.00; pEC50 (hMC4R): 5.40

Question: Which results are given for `CCCCCC1(c2cccc(F)c2)CN(C(=O)[C@@H](Cc2ccc(OC)cc2)NC(=O)CCc2c[nH]cn2)C1` [Compound 55, N-[(R)-2-[3-(3-fluorophenyl)-3-pentylazetidin-1-yl]-1-(4-methoxybenzyl)-2-oxoethyl]-3-(1H-imidazol-4-yl)propionamide]?
Answer: pEC50 (hMC1R): 6.92; pEC50 (hMC4R): 6.00

Question: With `CCCCCC1(c2ccccc2)CN(C(=O)[C@@H](Cc2cccc(C(F)(F)F)c2)NC(=O)CCc2c[nH]cn2)C1` [Compound 50, N-[(R)-2-oxo-2-(3-pentyl-3-phenylazetidin-1-yl)-1-(3-trifluoromethylbenzyl)ethyl]-3-(1H-imidazol-4-yl)propionamide] as the compound, how does the pEC50 (hMC1R) read?
Answer: Its pEC50 is 6.00.

Question: And the pEC50 (hMC4R)?
Answer: The pEC50 was 6.30.

Question: How did the pEC50 (hMC1R) turn out when `CCCCOC1(c2ccc(F)cc2)CN(C(=O)[C@@H](Cc2ccc(F)cc2)NC(=O)CCc2c[nH]cn2)C1` [Compound 32, N-[(R)-2-[3-butoxy-3-(4-fluorophenyl)azetidin-1-yl]-1-(4-fluorobenzyl)-2-oxoethyl]-3-(1H-imidazol-4-yl)propionamide] was run?
Answer: Its pEC50 is 6.00.

Question: And the pEC50 (hMC4R)?
Answer: The pEC50 was 5.40.

Question: `CC#CCOC1(c2ccccc2C)CN(C(=O)[C@@H](Cc2ccc(OC)cc2)NC(=O)CCc2nc[nH]c2C)C1` [Compound 76, N-[(R)-2-(3-But-2-ynyloxy-3-o-tolylazetidin-1-yl)-1-(4-methoxybenzyl)-2-oxoethyl]-3-(5-methyl-1H-imidazol-4-yl)propionamide] was tested. Which pEC50 (hMC1R) did it give?
Answer: Its pEC50 is 7.52.

Question: And the pEC50 (hMC4R)?
Answer: The pEC50 was 5.40.

Question: Which results are given for `CCCCOC1(c2ccccc2C)CN(C(=O)[C@@H](Cc2ccc(OC)cc2)NC(=O)C=Cc2c[nH]cn2)C1` [Compound 48, N-[(R)-2-(3-butoxy-3-o-tolylazetidin-1-yl)-1-(4-methoxybenzyl)-2-oxoethyl]-3-(1H-imidazol-4-yl)acrylamide]?
Answer: pEC50 (hMC1R): 5.40; pEC50 (hMC4R): 6.30

Question: With `CCCCCC1(c2ccccc2)CN(C(=O)[C@@H](Cc2ccc(F)cc2)NC(=O)CCc2c[nH]cn2)C1` [Compound 46, N-[(R)-1-(4-fluorobenzyl)-2-oxo-2-(3-pentyl-3-phenylazetidin-1-yl)ethyl]-3-(1H-imidazol-4-yl)propionamide] as the compound, how does the pEC50 (hMC1R) read?
Answer: Its pEC50 is 6.00.

Question: And the pEC50 (hMC4R)?
Answer: Its pEC50 is 5.40.

Question: How did the pEC50 (hMC1R) turn out when `CCCCOC1(c2ccccc2C)CN(C(=O)[C@@H](Cc2ccc(OC)cc2)NC(=O)CCC2N=NC(C)=N2)C1` (stereo partly drawn) [Compound 40, N-[(R)-2-(3-butoxy-3-o-tolylazetidin-1-yl)-1-(4-methoxybenzyl)-2-oxoethyl]-3-(5-methyl-3H-[1,2,4]triazol-3-yl)propionamide] was run?
Answer: The pEC50 was 5.10.

Question: What about the pEC50 (hMC4R) of the same compound?
Answer: Its pEC50 is 6.30.
